Data set [1] relates to skin of minipigs. The conditions noted are these: minipig, in vivo.
Data set [2] deals with pseudofolliculitis barbae (PFB). The experiment in a line: 10-week double blind, placebo-controlled, cross-over clinical trial in PFB. Conditions: 15% in 60% alcohol, 1% ULTREZ 10, 24% water; PFB subjects. The class given is in vivo, human. An excerpt: PFB efficacy is examined by a 10-week double blind, placebo-controlled, cross-over clinical trial. […] Papules, pustules, and ingrown hairs as defined below are counted and recorded. The primary objectives of this study are: • To determine the efficacy of various NSAID compositions applied at various intervals ranging from every other day to twice per day for five weeks in reducing the signs and symptoms of PFB; and • To determine the safety and tolerability of the various NSAID compositions. Papules, pustules, and ingrown hairs as defined below are counted and recorded. Lesions are counted on the neck, lower left and right cheeks, and jaw line (beard area). The same qualified physician completes the assessment at each visit. Each assessment is performed independent of previous assessments. Subjects have a total of at least 10 (for moderate) of 2 (for mild) follicular papules, pustules, or ingrown hairs at the Baseline Visit to be admitted to the study. Inflammatory and/or nodulocystic lesions, erythema, and hyperpigmentation are assessed according to the following six-point Likert (categorical) scale: • 0 None: […] Rare noninflammatory lesions present (lesions must be resolving and may be hyperpigmented, though not pink/red). Barely perceptible elevation (discernable by touch only). • 2 Mild: Noninflammatory lesions predominate, with few inflammatory papules/pustules. Light red color. Visible but mild elevation. No nodulocystic lesions. • 3 Moderate: Some noninflammatory lesions are present with multiple inflammatory lesions evident. Definite lesion redness and elevation. There may or may not be one small nodulocystic lesion. • 4 Severe: Highly inflammatory lesions predominate. Deep intense red color. Marked dermal swelling and in duration in widespread areas. There may or may not be a few nodulocystic lesions. • 5 Very Severe: Many nodulocystic lesions. Results are recorded in the source document and on the appropriate CRF. The same qualified physician will complete the assessment at each visit. Each assessment should be performed independent of previous assessments. Subjects must have a rating of at least moderate (3) at the Baseline Visit to be admitted to the study. All subjects are asked to evaluate specific PFB symptoms of itch, pain, and shaving discomfort, as well as the overall condition of their PFB at the Baseline, and weekly thereafter (“Subject's Assessment of Symptoms”). […] Global Assessment of Improvement. Subjects are asked to compare the overall condition of their PFB at the week 2, 4, and 6 visits with the overall condition before treatment using the following five-point Likert (categorical) scale: • 2 Overall condition and shaving comfort much better than before treatment. • 1 Overall condition and shaving comfort slightly better than before treatment. • 0 Overall condition and shaving comfort unchanged, same as before treatment. • −1 Overall condition and shaving comfort slightly worse than before treatment. • […] than before treatment. Each assessment is performed independent of previous assessments. The prodrug compositions are tested on PFB subjects according to Example 22 including pharmacokinetic analysis.

The test system of data set [3] is skin of minipigs. The experiment in a line: C14-labeled compositions applied to skin of minipigs, punch biopsies and serum samples. The conditions noted are these: 15% in 60% alcohol, 1% ULTREZ 10, 24% water; for Diffusion Rate (1 = high, 5 = low): 0.2 gm per cm^2 skin, biopsies 30 seconds to 24 hours; for Systemic Levels (1 = high, 5 = low): serum samples.
Data set [4] can be described thus: Prodrug (ibuprofen ethyl ester) generation upon storage, HPLC. The class given is physicochemical. The conditions noted are these: compositions similar to 1a, presence or absence of salicylic acid. The method, then: It has been discovered that, in one embodiment, compositions of the present invention, upon storage, result in the generation of a prodrug form of the active ingredient. Such prodrug formation results from reaction of a carboxylic acid group of the active drug with the alcoholic solvent to form an ester linkage.
HPLC analysis was performed on composition la stored for 3 months at 25° C. A new peak (i.e., the prodrug) distinct from the ibuprofen peak was detected within the chromatographic profile.
Next, two grams of composition 1a were diluted in twenty-five milliliters of 50:50) water:acetonitrile. The solution was centrifuged and the supernatant collected or analysis.
Chromatography was conducted as follows: • Pumps: Hewlett Packard Model 1100 Binary Systems • Solvent A: Water • Solvent B: Acetonitrile • Gradient: Start 40% B • Raise to 60% B at 20 minutes • Raise to 90% B at 40 minutes • Flow Rate: 1.0 ml/min • Stationary Phase ZORBAX® CS (4.6×150 mm) • Column Temperature: 25 C • Injection volume […]
Sequential detection was performed by UV absorbance using an HP diode array detector followed by ESI-MS […] a Sciex QSTAR®/Pulsar quadrupole-TOF mass spectrometer operating in either the positive and negative ion modes.

Where two headings read alike, the source gives them in different places.

As to `CCOC(=O)C(C)c1cccc(C(=O)c2ccccc2)c1` (stereo not drawn) [ketoprofen ethylester], in the data set with skin of minipigs [1], the “Diffusion Rate (1 = high, 5 = low)” value was 3 and the “Systemic Levels (1 = high, 5 = low)” value was found to be 3. In addition, the “Efficacy (1 = high, 5 = low)” value in data set [2] is listed as 3.
In the case of `CC(C)OC(=O)C(C)c1cccc(C(=O)c2ccccc2)c1` (stereo not drawn) [ketoprofen isopropyl ester], in the data set with skin of minipigs [3], the “Diffusion Rate (1 = high, 5 = low)” value was 3 and the “Systemic Levels (1 = high, 5 = low)” value was found to be 3. Moreover, the “Efficacy (1 = high, 5 = low)” value in data set [2] turned out to be 3.
As to “ethylisobutylphenyl-propionate [ibuprofen ethylester]”, in the data set on skin of minipigs [3], the “Diffusion Rate (1 = high, 5 = low)” value was 2 and the “Systemic Levels (1 = high, 5 = low)” value is given as 4. Besides, in data set [2], the “Efficacy (1 = high, 5 = low)” value came out at 2.
Regarding `CC(C)Cc1ccc(C(C)C(=O)OC(C)C)cc1` (stereo not drawn) [ibuprofen isopropyl ester], in the data set on skin of minipigs [3], the “Diffusion Rate (1 = high, 5 = low)” value came to 1 and the “Systemic Levels (1 = high, 5 = low)” value was 5. Besides, the “Efficacy (1 = high, 5 = low)” value in data set [2] was 1.
Turning to `O=C(O)c1ccccc1O` [salicylic acid], the “effect on rate of prodrug formation” value in data set [4] is “increases the rate of prodrug formation”.
On to `CC(C(=O)O)c1cccc(C(=O)c2ccccc2)c1` (stereo not drawn) [ketoprofen, reference compound], for which the “Systemic Levels (1 = high, 5 = low)” value in the data set with skin of minipigs [3] worked out at 2. Besides, the “Efficacy (1 = high, 5 = low)” value in data set [2] was 5.

The record behind these values is patent US20070053984A1, “Topical gels compositions” (priority 2005, published 2007).
